This is an account of results in ChEMBL document CHEMBL5113527, “First-in-Class Hydrazide-Based HDAC6 Selective Inhibitor with Potent Oral Anti-Inflammatory Activity by Attenuating NLRP3 Inflammasome Activation” (J Med Chem, 2022).

The nature of data set [1]: Brain concentration in CD-1 mouse at 20 mg/kg measured after 4 hrs by LC-MS/MS analysis. Format: ADME, organism-based. The settings on record: read-out: Ct.
In data set [2] the target is T1, Histone deacetylase 1 (Homo sapiens, UniProt Q13547). Nature of the data set: Binding affinity to recombinant HDAC1 (unknown origin) assessed as inhibition constant using Boc-Lys(acetyl)-AMC as substrate preincubated for 1 hr followed by substrate addition and measured after 2 hrs by fluorescence based microplate reader analysis.
T1 sequence (Q13547 whole entry): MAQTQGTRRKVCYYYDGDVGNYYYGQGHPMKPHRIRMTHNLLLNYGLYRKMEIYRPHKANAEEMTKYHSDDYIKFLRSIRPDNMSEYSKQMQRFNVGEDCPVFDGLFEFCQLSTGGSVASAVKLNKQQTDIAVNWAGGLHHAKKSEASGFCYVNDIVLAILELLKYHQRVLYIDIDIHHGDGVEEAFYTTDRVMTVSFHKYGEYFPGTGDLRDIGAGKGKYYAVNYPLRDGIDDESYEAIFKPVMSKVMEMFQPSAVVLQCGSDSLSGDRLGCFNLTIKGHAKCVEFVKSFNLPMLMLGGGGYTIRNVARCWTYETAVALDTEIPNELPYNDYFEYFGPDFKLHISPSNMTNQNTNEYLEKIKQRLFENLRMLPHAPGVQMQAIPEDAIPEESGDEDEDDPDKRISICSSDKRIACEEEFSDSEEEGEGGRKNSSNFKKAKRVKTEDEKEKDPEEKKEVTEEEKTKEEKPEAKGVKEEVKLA
A short description of data set [3]: Brain concentration in CD-1 mouse at 20 mg/kg measured after 0.5 hrs by LC-MS/MS analysis. The settings on record: read-out: Ct. Format: ADME, organism-based.
Data set [4] addresses T2, Protein deacetylase HDAC6 (Homo sapiens) (UniProt Q9UBN7).
T2 sequence (whole entry): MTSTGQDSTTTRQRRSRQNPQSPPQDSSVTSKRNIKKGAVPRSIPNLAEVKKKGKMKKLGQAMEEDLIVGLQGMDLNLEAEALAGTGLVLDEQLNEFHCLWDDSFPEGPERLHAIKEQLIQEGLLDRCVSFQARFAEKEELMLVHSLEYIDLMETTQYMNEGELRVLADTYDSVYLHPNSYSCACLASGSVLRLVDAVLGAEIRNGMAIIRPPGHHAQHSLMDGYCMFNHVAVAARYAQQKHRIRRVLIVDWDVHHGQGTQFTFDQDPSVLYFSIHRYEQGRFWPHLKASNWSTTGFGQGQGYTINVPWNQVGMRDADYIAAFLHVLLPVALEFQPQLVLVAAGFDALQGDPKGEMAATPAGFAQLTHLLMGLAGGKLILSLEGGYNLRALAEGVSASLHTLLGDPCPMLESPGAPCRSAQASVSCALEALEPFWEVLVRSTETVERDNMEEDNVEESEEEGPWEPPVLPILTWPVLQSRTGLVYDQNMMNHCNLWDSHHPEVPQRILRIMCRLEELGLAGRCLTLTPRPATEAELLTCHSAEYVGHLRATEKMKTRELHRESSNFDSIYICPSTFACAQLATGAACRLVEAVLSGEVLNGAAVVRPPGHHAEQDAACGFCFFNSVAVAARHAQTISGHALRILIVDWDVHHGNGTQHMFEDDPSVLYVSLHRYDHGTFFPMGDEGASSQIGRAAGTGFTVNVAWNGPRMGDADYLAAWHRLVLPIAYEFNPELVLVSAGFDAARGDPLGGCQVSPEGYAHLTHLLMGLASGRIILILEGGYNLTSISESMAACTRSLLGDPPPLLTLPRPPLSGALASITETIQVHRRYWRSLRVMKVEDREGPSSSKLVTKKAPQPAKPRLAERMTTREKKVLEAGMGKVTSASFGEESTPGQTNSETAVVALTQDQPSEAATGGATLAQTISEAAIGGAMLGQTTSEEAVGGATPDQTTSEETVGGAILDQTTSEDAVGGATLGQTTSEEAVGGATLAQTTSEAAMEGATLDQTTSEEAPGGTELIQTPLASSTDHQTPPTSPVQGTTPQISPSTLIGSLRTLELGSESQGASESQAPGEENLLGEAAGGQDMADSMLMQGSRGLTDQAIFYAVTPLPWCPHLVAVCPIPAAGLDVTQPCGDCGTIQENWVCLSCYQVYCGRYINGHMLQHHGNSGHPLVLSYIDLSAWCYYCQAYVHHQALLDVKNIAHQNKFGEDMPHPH
Nature of the data set: Inhibition of HDAC6 in human MV4-11 cells assessed as decrease in hyper acetylation of histone alpha tubulin preincubated for 6 hrs followed by compound washout measured after 1 hr by western blot analysis. Format: cell-based. For orientation: In western blotting, separated proteins are transferred to a membrane and probed.

A short description of data set [5]: Half life in CD-1 mouse at 5 mg/kg, iv measured after 0.083 to 24 hrs by LC-MS/MS analysis. Format: ADME, organism-based. The conditions noted are these: in vivo, time 0.083-24 hrs.
Data set [6] has as its system J774.A1. Nature of the data set: Inhibition of HDAC6/dynein interaction in mouse J774.A1 cells measured after 8 hrs by co-immunoprecipitation based Western blotting analysis. Format: cell-based.
In another data set the test system is HEK293. Nature of the data set: Cytotoxicity against human HEK293 cells assessed as reduction in cell viability at 100 uM measured after 48 hrs by spectrophotometric analysis. The conditions noted are these: hek293, 48 h. Type of data set: toxicity, cell-based.
Data set [7] is described as follows: Acute toxicity in LPS-induced endotoxic shock C57BL/6 mouse model assessed as effect on body weight at 500 mg/kg, po administered as single dose for 15 days. Format: organism-based. The conditions noted are these: in vivo, 360 h, time 15 day.
Data set [8] concerns the target T1, Histone deacetylase 1. Nature of the data set: Inhibition of recombinant HDAC1 (unknown origin) using Boc-Lys(acetyl)-AMC as substrate preincubated for 1 hr followed by substrate addition and measured after 2 hrs by fluorescence based microplate reader analysis.
The target in another data set is Histone deacetylase 4 (Homo sapiens, UniProt P56524). Nature of the data set: Inhibition of recombinant HDAC4 (unknown origin) using Boc-Lys (trifluoroacetyl) AMC as substrate preincubated for 1 hr followed by substrate addition and measured after 2 hrs by fluorescence based microplate reader analysis.
Chain of Histone deacetylase 4 (P56524 whole entry): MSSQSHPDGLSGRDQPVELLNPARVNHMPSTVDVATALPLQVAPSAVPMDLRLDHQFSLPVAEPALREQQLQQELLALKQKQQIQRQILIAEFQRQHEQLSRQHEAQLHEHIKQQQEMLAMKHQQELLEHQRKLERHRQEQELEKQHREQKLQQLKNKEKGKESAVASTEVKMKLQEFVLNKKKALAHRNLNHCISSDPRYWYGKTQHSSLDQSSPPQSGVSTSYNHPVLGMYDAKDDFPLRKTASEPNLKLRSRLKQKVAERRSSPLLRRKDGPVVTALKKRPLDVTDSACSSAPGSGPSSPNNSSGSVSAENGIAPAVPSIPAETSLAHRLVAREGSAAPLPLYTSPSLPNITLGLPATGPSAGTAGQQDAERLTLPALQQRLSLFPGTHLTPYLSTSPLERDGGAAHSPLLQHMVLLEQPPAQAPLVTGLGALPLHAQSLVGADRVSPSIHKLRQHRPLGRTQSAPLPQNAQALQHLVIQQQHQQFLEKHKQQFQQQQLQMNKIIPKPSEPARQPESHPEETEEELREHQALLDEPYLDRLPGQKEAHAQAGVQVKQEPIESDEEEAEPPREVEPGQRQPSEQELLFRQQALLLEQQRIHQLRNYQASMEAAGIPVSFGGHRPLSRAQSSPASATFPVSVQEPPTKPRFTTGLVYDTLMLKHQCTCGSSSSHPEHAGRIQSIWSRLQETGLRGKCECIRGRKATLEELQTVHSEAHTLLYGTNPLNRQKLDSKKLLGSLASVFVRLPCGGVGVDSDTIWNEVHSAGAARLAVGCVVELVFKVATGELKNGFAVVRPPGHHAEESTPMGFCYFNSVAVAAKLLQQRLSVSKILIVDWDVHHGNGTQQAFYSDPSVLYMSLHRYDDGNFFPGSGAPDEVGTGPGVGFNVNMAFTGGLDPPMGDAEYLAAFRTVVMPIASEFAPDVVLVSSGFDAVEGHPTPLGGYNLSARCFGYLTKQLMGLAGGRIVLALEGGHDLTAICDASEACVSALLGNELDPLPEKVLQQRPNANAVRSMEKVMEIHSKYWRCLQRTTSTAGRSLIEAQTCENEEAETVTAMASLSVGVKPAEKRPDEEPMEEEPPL
Data set [9] is described as follows: Brain concentration in CD-1 mouse at 20 mg/kg measured after 1 hrs by LC-MS/MS analysis. The settings on record: read-out: Ct. Format: ADME, organism-based.
For data set [10], the target named is T3, Protein deacetylase HDAC6 (Homo sapiens, UniProt Q9UBN7).
T3 sequence (Q9UBN7 whole entry): T2 sequence (whole entry)
Nature of the data set: Inhibition of recombinant HDAC6 (unknown origin) using Boc-Lys(acetyl)-AMC as substrate preincubated for 60 mins followed by substrate addition and measured after 2 hrs by fluorescence based microplate reader analysis.

Data set [11] concerns Mus musculus. Nature of the data set: Inhibition of LPS-induced endotoxic shock in C57BL/6 mouse model serum assessed as decrease in IL-1beta level at 20 mg/kg, po measured after 12 hrs. Format: functional, organism-based.
Data set [12] is described as follows: Plasma concentration in CD-1 mouse at 20 mg/kg measured after 0.5 hrs by LC-MS/MS analysis. Format: ADME, organism-based.
Data set [13] in a line: Ratio of drug concentration in brain to plasma of CD-1 mouse measured after 4 hrs by LC-MS/MS analysis. Type of data set: ADME. The conditions noted are these: read-out: BPR.
Data set [14] deals with Mus musculus. Nature of the data set: Inhibition of LPS-induced endotoxic shock in C57BL/6 mouse model serum assessed as decrease in IL-1beta level at 20 mg/kg, ip measured after 12 hrs. Type of data set: functional, organism-based.
In data set [15] the target is T3, Protein deacetylase HDAC6. Nature of the data set: Inhibition of recombinant HDAC6 (unknown origin) using Boc-Lys(acetyl)-AMC as substrate preincubated for 1 hr followed by substrate addition and measured after 2 hrs by fluorescence based microplate reader analysis.
Data set [16] in a line: Cmax in CD-1 mouse at 20 mg/kg, po measured after 0.083 to 24 hrs by LC-MS/MS analysis. Type of data set: ADME, organism-based. On the set-up: time 0.083-24 hrs, dose 20 mg/kg, route po. The settings on record: in vivo.
Data set [17] in a line: Half life in CD-1 mouse at 20 mg/kg, po measured after 0.083 to 24 hrs by LC-MS/MS analysis. Type of data set: ADME, organism-based. The conditions noted are these: in vivo, time 0.083-24 hrs.
A short description of data set [18]: Ratio of drug concentration in brain to plasma of CD-1 mouse measured after 0.5 hrs by LC-MS/MS analysis. Format: ADME. The conditions noted are these: read-out: BPR.
Data set [19] addresses T3, Protein deacetylase HDAC6. Nature of the data set: Inhibition of recombinant HDAC6 (unknown origin) using Boc-Lys(acetyl)-AMC as substrate preincubated for 15 mins followed by substrate addition and measured after 2 hrs by fluorescence based microplate reader analysis.
The test system of data set [20] is J774.A1. Nature of the data set: Antiinflammatory activity against LPS primed mouse J774.A1 cells assessed suppression of LPS/ATP induced IL-beta release preincubated for 30 mins followed by ATP stimulation measured after 30 mins by ELISA. Format: functional, cell-based. For orientation: An ELISA detects its analyte on a solid surface through an enzyme-linked reagent.

Active and inactive are the calls of the source. No cut-off for these calls is given here. Some results are limits rather than exact numbers.

Broadly, the Ki is the equilibrium dissociation constant of an inhibitor or competing ligand from its target. A word on the half-life: it is how long it takes for the measured level to halve. Lower therefore signals fast loss. As a reminder, the IC50 is the point on the concentration scale where inhibition reaches its midpoint. A word on the Cmax: it is the highest concentration seen after dosing. As for `CCNNC(=O)c1ccc(CN2c3ccccc3C=Cc3ccncc32)cc1`, the concentration at 4 h in [1] was determined as 245 ng/mL. Further, the Ki at Histone deacetylase 1 [2] stood at 875 nM. The concentration at 0.5 h came to 11300 ng/mL in data set [3] and 7740 ng/mL in data set [12]. The inhibition entry (in data set [4]; in the data set on J774.A1 [6]) was “Active” throughout. Further, the half-life in [5] was 7.95 h; in data set [17], 6.8 h. The Activity entry (in the data set on HEK293; in data set [7]) was “Non-Toxic” throughout. The IC50 at Histone deacetylase 1 [8] is 1530 nM; on Histone deacetylase 4, above 5000 nM; in [10], 32.5 nM; in [15], 19 nM; in [19], 257 nM; with J774.A1 [20], 2610 nM. Also, the concentration at 1 h in data set [9] came out at 7400 ng/mL. Further, the outcome in the data set on Mus musculus [11] and in the data set on Mus musculus [14] was Active. In data set [13], the Kp at 4 h stood at 1.51. In data set [16], this compound registered a Cmax of 5570 ng/mL. Besides, in data set [18], the Kp at 0.5 h was found to be 1.45.
